{"source": "patent EP4623911A1", "about": "“PI4KB INHIBITORS FOR THE TREATMENT OF FATTY LIVER DISEASE” (ETH Zurich, priority 2024, dated 2025)", "key": {"ATGL [1]": {"system": "ATGL", "experiment": "ATGL protein quantification via immunoblot in HepG2 cell type", "type": "cell-based, human", "method": "HepG2 cell type was cultured in RPMI medium with 10% FBS and 1% Pen/Strep on collagen-coated plates. Lipofectamine RNAiMAX reagent mediated siRNA (100 nM) was delivered to cells at the suspended state for 48 h. Different from HEK cells, it is not necessary to induce LDs via OA treatment in that there exist LDs in the HepG2 cell type at normal culture medium. The inventors treated HepG2 cells with 10 µM PF04620110 (DGAT1 inhibitor, Sigma) & PF-06424439 (DGAT2 inhibitor, Sigma) for 48 hours or with 5 µg/mL BFA (B5936, Sigma) for 6 hours to deplete LDs and intact Golgi in the HepG2 cell type respectively before glucose deprivation. To deprive glucose in the HepG2 cell type, we either added 2-DG at indicated concentrations to the culture medium or refresh cells with RPMI medium containing different glucose concentrations prepared from the same RPMI medium (Gibco, 11879020).\nAdipose depots, liver pieces, differentiated iBAs, HepG2, HEK293T and HEK293-AAV cell types were homogenized in RIPA buffer (50 mM Tris-HCl pH 7.4, 150 mM NaCl, 2 mM EDTA, 1.0% Triton X100, 0.5% sodium deoxycholate) with protease inhibitors (Complete, Roche) and phosphatase inhibitors (Halt phosphatase inhibitor cocktail, ThermoFisher). […] The concentration of WCE was determined by DC Protein Assay (Bio-Rad). […]"}, "wild-type mice": {"system": "wild-type mice", "experiment": "Glucose deprivation by 2-DG administration in mice", "type": "in vivo", "method": "All animal experiments were permitted by the Veterinary office of the Canton of Zurich. Both female and male mice were used in the experiments, and they were housed 2-5 littermates per cage in ventilated cages at standard housing conditions (22°C, 12 h reversed light/dark cycle, dark phase starting at 7 am) with normal chow diet (18% proteins, 4.5% fibers, 4.5% fat, 6.3% ashes, Provimi Kliba SA) and water. Health status of all the mouse lines were monitored regularly based on FELASA guidelines. 8-10 weeks old C57BL/6N male mice were fasted for 24 h or injected with 2-DG (2 g/kg BW) to induce glucose deprivation for different durations. Female ROSA26-LSL-spCas9 mice (The Jackson Lab strain) were intravenously injected with AAV8-U6-Pi4kb gRNAs-TBG-Cre, AAV8-U6-Sacm1l gRNAs-TBG-Cre, AAV8-U6-Cu/7 gRNAs-TBG-Cre and AAV8-U6-Fbxw8 gRNAs-TBG-Cre virus pools to express six gRNAs targeting individual gene and CAS9 in the liver at a dose of 3×10^11 genome copies/mouse. Two weeks later, livers were harvested for protein and RNA extraction after 6 hours fasting. To determine liver TG levels under NCD feeding condition, 4 weeks after AAV administration livers were harvested after 6 hours fasting. Also 4 weeks after AAV administration, the liver specific Cul7&Fbxw8 double knockout mice were injected with 2-DG (2 g/kg BW) to induce 1 hour glucose deprivation prior to liver harvesting for protein extraction.\nAdipose depots, liver pieces, differentiated iBAs, HepG2, HEK293T and HEK293-AAV cell types were homogenized in RIPA buffer (50 mM Tris-HCl pH 7.4, 150 mM NaCl, 2 mM EDTA, 1.0% Triton X100, 0.5% sodium deoxycholate) with protease inhibitors (Complete, Roche) and phosphatase inhibitors (Halt phosphatase inhibitor cocktail, ThermoFisher). The homogenates were centrifuged at 12,000×g for 10 min at 4°C to remove debris and collect whole cell extract (WCE). The concentration of WCE was determined by DC Protein Assay (Bio-Rad). After boiling the sample with Lämmeli buffer at 95°C for 5 min, equal amount of proteins was loaded and separated on 12% SDS-PAGE. The proteins were transferred to nitrocellulose membrane and blotted by ATGL (1:1000, Cell Signaling), CGI-58 (1:1000, Proteintech), phospho-HSL(Ser660) (1:1000, Cell Signaling), PLIN1 (1:1000, Cell Signaling), HSL (1:1000, Cell Signaling), γ-tubulin (1:10000, Sigma), FLAG (1:10000, Sigma; 1:1000, Cell Signaling), MGL (1:1000, Abcam), HA (1:1000, Cell signaling), FBXW8 (1:100, Santa Cruz; 1:1000, Sigma), CUL7 (1:100, Santa Cruz), HSP90 (1:1000, Cell Signaling), K48 polyubiquitin (1:1000, Cell signaling), PI4KB (1:1000, Sigma), SACM1L (1:1000, Sigma), AKT1 (1:1000, Cell Signaling), phospho-AKT1(Ser473) (1:1000, Cell Signaling), TGN46 (1:1000, Abcam), MAOA (1:1000, Abcam), PLIN2 (1:1000, Abcam), PMP70 (1:10000, Sigma), Calnexin (1:1000, Cell Signaling), ARF1 (1:1000, Invitrogen), GAPDH (1:1000, Cell Signaling), RAB7 (1:1000, Cell Signaling), alpha 1 Sodium Potassium ATPase (1:1000, Abcam), Cleaved Caspase-3 (1:1000, Cell Signaling), phospho-AMPKα (Thr172) (1:1000, Cell Signaling), AMPKα (1:1000, Cell Signaling) and GM130 (1:1000, Proteintech). The primay antibody signal was visualized by HRP-conjugated secondary antibodies (1:5000, Millipore) and the ImageQuant system (GE Healthcare Life Sciences).\nFor mouse insulin measurement, plasma was collected at different timepoints after 2-DG administration in wild type mice. 5 µl plasma sample was used to determine insulin levels via Ultra-sensitive mouse insulin ELISA kit (Crystal Chem, Cat# 90080) according to the manufacturer's protocol. The absorbance was measured via Synergy Gen5 Platereader at 450/630 nm. 2 µl plasma sample was used to determine glucose levels via Glucose Assay Kit (Sigma, MAK263) according to the manufacturer's protocol. The absorbance was read at 570 nm in Synergy Gen5 Platereader.\nPlasma collected from mice under different conditions was used to determine levels of lipolysis and liver injury. […]"}, "ATGL [2]": {"system": "ATGL", "experiment": "Blocking of proteasome mediated degradation and autophagy, cellular ATGL protein", "type": "cell-based", "settings": "proteasome blocked by MG132"}, "[3]": {"settings": "1 hour after 2-DG administration"}}, "note": "Where a SMILES comes first, the peptide text is derived from it. The star is where a group is joined. Cbz = O=C(OCc1ccccc1)*"}
{"compound": "O=CC[C@@H](O)[C@H](O)[C@H](O)CO", "note": "[2-DG, 2-Deoxy-D-glucose]", "values": [{"measurement": "ATGL protein abundance", "setting": "ATGL [1]; HepG2, 2-DG treatment (50 mM), transcript levels unchanged", "result": "strongly induced"}, {"measurement": "lipolysis (plasma FFA levels)", "setting": "wild-type mice; 2-DG 2 g/kg BW, 1 h, 6 h and 12 h", "result": "significantly induced"}, {"measurement": "ATGL levels in livers of wild-type mice", "setting": "wild-type mice; 2-DG for 1 hour, no upregulation in Cul7 and Fbxw8 double knockout", "result": "upregulation"}, {"measurement": "ATGL protein levels in the liver and iBAT", "setting": "wild-type mice; 1 hour after 2-DG", "result": "increased"}, {"measurement": "HSL phosphorylation in white adipose tissues", "setting": "wild-type mice; [3]", "result": "upregulation"}, {"measurement": "plasma insulin levels", "setting": "wild-type mice; [3]", "result": "reduction"}, {"measurement": "ATGL protein levels in the liver, iBAT, iWAT and gWAT", "setting": "wild-type mice; longer glucose deprivation (6 h, 12 h after 2-DG)", "result": "further accumulation"}]}
{"compound": "C[C@H]1CCC/C=C/[C@@H]2C[C@H](O)C[C@H]2[C@H](O)/C=C/C(=O)O1", "note": "[BFA, Brefeldin A]", "values": [{"measurement": "intracellular ATGL levels upon glucose deprivation", "setting": "ATGL [1]; HepG2 after treatment with BFA (5 µg/mL, 6 hours)", "result": "failed to upregulate"}]}
{"compound": "CC(C)C[C@@H](C=O)NC(=O)[C@H](CC(C)C)NC(=O)[C@H](CC(C)C)NC(=O)OCc1ccccc1", "note": "[MG132] (Cbz-Leu-Leu-Leu-aldehyde)", "values": [{"measurement": "cellular ATGL protein", "setting": "ATGL [2]", "result": "accumulation"}]}
